Common to all, as to type: cell-based
One assay deals with E. coli EC114, ST 131. Nature of the assay: Broth microtiter dilution MIC, EC114. To be noted: Escherichia coli, TEM-1 (A), CTX-M-15 (A), OXA-1 (D), read-out: MIC (mg/liter) for β-lactam. How it is done:
(§1) The in vitro activity of cyclic boronate 2 was assessed using nine clinical isolates carrying multiple β-lactamases (Table 3). The isolates selected included Enterobacteriaceae (E. coli ST 131, Klebsiella pneumoniae ST 258, and Providencia stuartii) producing class A ESBLs (CTX-M-15, CTX-M-27, SHV-5, and VEB-1), serine carbapenemase (KPC-2) and metallo-carbapenemases (VIM-1 and VIM-2), plasmid-mediated AmpC (CMY-2), and/or carbapenem-hydrolyzing OXA-48-like oxacillinases (OXA-181 and OXA-232) in various combinations. The activity against carbapenemase-producing strains of Pseudomonas aeruginosa (VIM-2) and Acinetobacter baumannii (OXA-23) was also investigated. All isolates have previously undergone extensive phenotypic and genotypic characterization ([60]).
(§2) MICs were determined using commercial Sensititre GN4F panels (Thermo Scientific, UK; lot B55051) and Mueller-Hinton II cation-adjusted broth (Oxoid, UK), with and without the addition of cyclic boronate 2 at a fixed concentration of 10 μg/ml. Plates were incubated at 37°C for 18 h and MICs read by eye following the addition of alamarBlue reagent (Trek Diagnostics).

The subject of a further assay is K. pneumoniae KP58. Nature of the assay: Broth microtiter dilution MIC, KP58. To be noted: Klebsiella pneumoniae, SHV-11 (A), VIM-4 (B), read-out: MIC (mg/liter) for β-lactam. How it is done:
as §1, §2

The subject of the next assay is E. coli EC86. The experiment in a line: Broth microtiter dilution MIC, EC86. To be noted: E. coli EC86, CTX-M-15 (A), CMY-4 (C), OXA-181 (D). How it is done:
as §1, §2

In the next assay the test system is P. stuartii PS71. The experiment in a line: Broth microtiter dilution MIC, PS71. To be noted: Providencia stuartii, TEM-1 (A), SHV-5 (A), VEB-1 (A), VIM-1 (B), read-out: MIC (mg/liter) for β-lactam. How it is done:
as §1, §2

The next assay has as its system A. baumannii AB14. Nature of the assay: Broth microtiter dilution MIC, AB14. To be noted: Acinetobacter baumannii, OXA-23 (D), OXA-51 (D), read-out: MIC (mg/liter) for β-lactam. How it is done:
as §1, §2

In a further assay the test system is E. coli EC113, ST 131. Nature of the assay: Broth microtiter dilution MIC, EC113. To be noted: Escherichia coli, CTX-M-27 (A), read-out: MIC (mg/liter) for β-lactam. How it is done: as §1, §2
In another assay the test system is K. pneumoniae KP15. The experiment in a line: Broth microtiter dilution MIC, KP15. To be noted: Klebsiella pneumoniae, TEM-1 (A), SHV-11 (A), KPC-2 (A), read-out: MIC (mg/liter) for β-lactam. How it is done:
as §1, §2

A further assay relates to E. coli EC107, ST 131. The experiment in a line: Broth microtiter dilution MIC, EC107. To be noted: Escherichia coli, CTX-M-15 (A), OXA-1 (D), read-out: MIC (mg/liter) for β-lactam. How it is done: as §1, §2
Another assay deals with K. pneumoniae (KP15). How it is done: (§3) Combination discs (Oxoid) were prepared with a fixed ratio of 2:1 between the β-lactam (μg) and cyclic boronate 2. Zones of inhibition around combined and unsupplemented discs were compared following overnight incubation on MH II plates.
Another assay concerns K. pneumoniae (KP41). How it is done: as §3
Another assay deals with K. pneumoniae (KP58). How it is done: as §3
The test system of assay [1] is P. aeruginosa PA12, ST 111. The experiment in a line: Broth microtiter dilution MIC, PA12. To be noted: Pseudomonas aeruginosa, VIM-2 (B), read-out: MIC (mg/liter) for β-lactam. How it is done:
as §1, §2

In the next assay the test system is K. pneumoniae KP41. Nature of the assay: Broth microtiter dilution MIC, KP41. To be noted: Klebsiella pneumoniae, TEM-1, SHV-1, SHV-5, SHV-11, CTX-M-15 (A), OXA-232 (D), read-out: MIC (mg/liter) for β-lactam. How it is done:
as §1, §2

Setting [2] is: with cyclic boronate 2 (10 mg/liter) supplementation.
[3] abbreviates: without cyclic boronate 2 supplementation.

Consider one compound from paper PMC5365654, “Cyclic Boronates Inhibit All Classes of β-Lactamases” (Antimicrobial Agents and Chemotherapy, 2017).

Where two headings read alike, the source gives them in different places.

Turning to `CCN1CCN(C(=O)N[C@@H](C(=O)N[C@@H]2C(=O)N3[C@@H]2SC(C)(C)[C@@H]3C(=O)O)c2ccccc2)C(=O)C1=O` [PIP, piperacillin], the MIC in the assay with E. coli EC114, ST 131 (setting [2]) was above 64 mg/L; in the assay on E. coli EC114, ST 131 (setting [3]), above 64 mg/L; with K. pneumoniae KP58 (setting [2]), above 64 mg/L; in the assay on K. pneumoniae KP58 (setting [3]) it was above 64 mg/L; with E. coli EC86 (Escherichia coli, with cyclic boronate 2 (10 mg/liter) supplementation, read-out: MIC (mg/liter) for β-lactam), above 64 mg/L; with P. stuartii PS71 (setting [2]), above 64 mg/L. The MIC with P. stuartii PS71 (setting [3]) was above 64 mg/L; in the assay on A. baumannii AB14 (setting [2]), above 64 mg/L; with A. baumannii AB14 (setting [3]), above 64 mg/L; in the assay with E. coli EC113, ST 131 (setting [2]), at most 16 mg/L; in the assay with E. coli EC113, ST 131 (setting [3]) it was above 64 mg/L; with K. pneumoniae KP15 (setting [2]), above 64 mg/L. Moreover, the MIC was above 64 mg/L in the assay with K. pneumoniae KP15 (setting [3]); above 64 mg/L with E. coli EC107, ST 131 (setting [2]); above 64 mg/L in the assay on E. coli EC107, ST 131 (setting [3]); 64 mg/L in [1] (setting [2]); above 64 mg/L in assay [1] (setting [3]); above 64 mg/L in the assay with K. pneumoniae KP41 (setting [2]). The MIC in the assay on K. pneumoniae KP41 (setting [3]) is above 64 mg/L. For the same compound, the “MIC (mg/liter) for β-lactam” value in the assay with E. coli EC86 (setting [3]) was above 64 mg/L. The “Synergy When Combined with (2): Fixed 2:1 µg Ratio” value in the assay with K. pneumoniae (KP15) was “Y”; with K. pneumoniae (KP41), “N”; in the assay with K. pneumoniae (KP58) it was “Y”.
